Here are results for eleven compounds from ChEMBL document CHEMBL1201862, “PubChem BioAssay data set” (2004).

Test systems include A549; COLO 205; DU-145; HCT-15; HL-60; K562; KM12; MCF7; MDA-MB-435; MDA-N; MOLT-4; NCI-H23; OVCAR-8; SF-539; SN12C; SR; T47D; TK-10; HCC 2998.
Test in all cases: NCI anticancer screen, dose series, 48 h

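Grown in 96-well plates, cells were treated for 48 hours with each compound at five concentrations. Insufficient inhibition: endpoint recorded as highest concentration tested. GI50 = concentration required for 50% inhibition of growth.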 Active and inactive are the calls of the source. Rule as the data show it: active = GI50 up to about 1.1 µM and inactive = higher.

`OC1(c2ccc3ccccc3c2)c2c(c3ccccc3c3ccccc23)C2=NCCN21` (stereo unspecified): the GI50 with A549 is 7.1 µM (inactive); in the experiment on COLO 205 it was 1.85 µM (inactive); with DU-145, 16.9 µM (inactive); in the experiment with HCT-15 it was 4.63 µM; with HL-60, 6.46 µM (inactive); in the experiment with K562, 3.81 µM (inactive). Besides, the GI50 in the experiment on KM12 is 2.32 µM (inactive); with MCF7, 3.48 µM (inactive); with MDA-MB-435, 2.17 µM (inactive); with MDA-N it was 1.96 µM (inactive); in the experiment on MOLT-4, 4.81 µM (inactive); in the experiment with NCI-H23, 12.1 µM (inactive). The GI50 with OVCAR-8 is 4.44 µM (inactive); in the experiment with SF-539, 5.45 µM (inactive); with SN12C, 9.2 µM (inactive); in the experiment on SR, 3.08 µM (inactive); in the experiment with T47D, 4.45 µM (inactive); in the experiment on TK-10, 7.98 µM (inactive).

On to `CC(C)(C)OC(=O)N1CCC(C(=O)O)CC1`, for which the GI50 with A549 is > 100 µM (inactive); in the experiment on COLO 205, > 100 µM (inactive); in the experiment on DU-145, > 100 µM (inactive); in the experiment on HCC 2998, > 100 µM (inactive); in the experiment with HCT-15 it was more than 100 µM; in the experiment with HL-60 it was > 100 µM (inactive). The GI50 in the experiment with KM12, in the experiment on MCF7, in the experiment with MDA-MB-435, in the experiment on MDA-N, in the experiment on MOLT-4 and in the experiment on NCI-H23 was > 100 µM (inactive) in each case. The GI50 in the experiment on OVCAR-8, in the experiment with SF-539, in the experiment on SN12C, in the experiment on SR, in the experiment on T47D and in the experiment with TK-10 was > 100 µM (inactive) in each case.

Turning to `NCCNCC1CCNCC1`, the GI50 with A549 is > 100 µM (inactive); in the experiment on COLO 205 it was > 100 µM (inactive); in the experiment with DU-145, > 100 µM (inactive); in the experiment with HCC 2998 it was > 100 µM (inactive); with HCT-15, more than 100 µM; with K562, > 100 µM (inactive). The GI50 with KM12, in the experiment with MCF7, with MDA-MB-435, with MDA-N, in the experiment with MOLT-4 and in the experiment on NCI-H23 was > 100 µM (inactive) throughout. For the same compound, the GI50 with OVCAR-8, in the experiment with SF-539, in the experiment with SN12C, with SR, in the experiment with T47D and in the experiment with TK-10 was > 100 µM (inactive) each time.

`COc1cc(C(=O)N(C(=O)N2CCCCC2)c2ccccc2)cc(OC)c1OC`: the GI50 in the experiment on A549 was > 100 µM (inactive); in the experiment with COLO 205, > 100 µM (inactive); with DU-145, > 100 µM (inactive); in the experiment on HCC 2998 it was > 100 µM (inactive); in the experiment on HCT-15, more than 100 µM; with K562, > 100 µM (inactive). Also, the GI50 with KM12, in the experiment with MCF7, in the experiment on MDA-MB-435, with MDA-N, in the experiment on MOLT-4 and in the experiment with NCI-H23 was > 100 µM (inactive) each time. In addition, the GI50 in the experiment on OVCAR-8, in the experiment on SF-539, with SN12C, in the experiment with SR and in the experiment on T47D was > 100 µM (inactive) in each case.

As for `COc1cc(OC)c(C2c3cc4c(cc3OC(N3CCOCC3)C2C)OCO4)c(OC)c1` (stereo unspecified), the GI50 was 45.9 µM (inactive) with A549; 35.2 µM (inactive) in the experiment on COLO 205; 21.5 µM (inactive) in the experiment on DU-145; > 100 µM (inactive) in the experiment with HCC 2998; 17.4 µM with HCT-15; 40.8 µM (inactive) with K562. The GI50 with KM12 was 24.5 µM (inactive); in the experiment on MCF7, 37.8 µM (inactive); with MDA-MB-435 it was 38.7 µM (inactive); with MDA-N it was 72.6 µM (inactive); in the experiment with MOLT-4 it was 21.4 µM (inactive); in the experiment on NCI-H23, > 100 µM (inactive). The GI50 was 43.6 µM (inactive) in the experiment on OVCAR-8; 12.3 µM (inactive) with SF-539; 67 µM (inactive) with SN12C; 18 µM (inactive) in the experiment on SR; 17.7 µM (inactive) in the experiment on T47D; > 100 µM (inactive) in the experiment on TK-10.

Consider `CCOC(=O)CSc1nc2ccccc2c(=O)n1N`, for which the GI50 in the experiment on A549 is 83 µM (inactive); in the experiment on COLO 205, > 100 µM (inactive); in the experiment on DU-145, 40.9 µM (inactive); in the experiment on HCC 2998, 37.6 µM (inactive); in the experiment with HCT-15, more than 100 µM; in the experiment with K562 it was > 100 µM (inactive). Besides, the GI50 in the experiment on KM12, with MCF7, with MDA-MB-435, in the experiment with MDA-N, in the experiment on MOLT-4 and in the experiment on NCI-H23 was > 100 µM (inactive) in each case. Further, the GI50 in the experiment on OVCAR-8 was 32.8 µM (inactive); with SF-539, > 100 µM (inactive); in the experiment on SN12C, 63.1 µM (inactive); in the experiment with SR, > 100 µM (inactive); in the experiment on T47D, > 100 µM (inactive); with TK-10, 83.2 µM (inactive).

In the case of `COc1ccc(-n2cnc3c(NC(C)(C)C(=O)O)ncnc32)cc1`, the GI50 in the experiment on A549 was > 100 µM (inactive); in the experiment with COLO 205, > 100 µM (inactive); with DU-145, > 100 µM (inactive); in the experiment on HCC 2998 it was > 100 µM (inactive); in the experiment with HCT-15 it was more than 100 µM; with K562 it was > 100 µM (inactive). In addition, the GI50 with KM12, with MCF7, with MDA-MB-435, in the experiment on MDA-N, with MOLT-4 and in the experiment on NCI-H23 was > 100 µM (inactive) each time. Further, the GI50 in the experiment with OVCAR-8, in the experiment on SN12C, in the experiment with SR, with T47D and in the experiment with TK-10 was > 100 µM (inactive) in each case.

Turning to `Cc1nnc(S(=O)(=O)c2ccc(/N=N/c3c(N)nc(N)nc3N)cc2)s1`, the GI50 in the experiment with A549 was > 100 µM (inactive); with COLO 205, > 100 µM (inactive); in the experiment with DU-145, > 100 µM (inactive); in the experiment on HCT-15, more than 100 µM; with HL-60 it was 33.4 µM (inactive); in the experiment with K562 it was > 100 µM (inactive). For the same compound, the GI50 in the experiment on KM12, in the experiment on MCF7, in the experiment on MDA-MB-435, in the experiment with MDA-N, in the experiment on MOLT-4 and in the experiment with NCI-H23 was > 100 µM (inactive) throughout. Also, the GI50 in the experiment on OVCAR-8, in the experiment on SF-539, in the experiment on SN12C, in the experiment on SR, with T47D and with TK-10 was > 100 µM (inactive) throughout.

As for `CC1(C)CCCCCC(O)C(O)CCC(C)(C)C1=O` (stereo unspecified), the GI50 in the experiment with A549 is > 100 µM (inactive); in the experiment on COLO 205 it was > 100 µM (inactive); with DU-145, > 100 µM (inactive); with HCT-15 it was more than 100 µM; with HL-60, > 100 µM (inactive); in the experiment on K562, > 100 µM (inactive). Besides, the GI50 with KM12, in the experiment with MCF7, with MDA-MB-435, in the experiment with MDA-N, with MOLT-4 and in the experiment with NCI-H23 was > 100 µM (inactive) each time. The GI50 with OVCAR-8, in the experiment on SF-539, in the experiment with SN12C, in the experiment with SR, with T47D and in the experiment with TK-10 was > 100 µM (inactive) in each case.

On to `CC(=O)Nc1cc2nc3n(c2cc1C)CCC3OC(C)=O` (stereo unspecified), for which the GI50 in the experiment with A549 is > 100 µM (inactive); in the experiment with COLO 205, > 100 µM (inactive); in the experiment with DU-145, > 100 µM (inactive); in the experiment on HCC 2998, > 100 µM (inactive); with HCT-15 it was more than 100 µM; in the experiment on HL-60 it was > 100 µM (inactive). In addition, the GI50 with K562, in the experiment with KM12, with MCF7, in the experiment with MDA-MB-435, with MDA-N and in the experiment with MOLT-4 was > 100 µM (inactive) each time. The GI50 in the experiment on NCI-H23, in the experiment on OVCAR-8, in the experiment on SF-539, with SN12C, with SR and in the experiment on T47D was > 100 µM (inactive) in each case.

On to `NC1CC(N)c2c(Br)sc(Br)c21` (stereo unspecified), for which the GI50 was 97.7 µM (inactive) in the experiment on A549; > 100 µM (inactive) in the experiment with COLO 205; > 100 µM (inactive) with DU-145; 55.8 µM (inactive) in the experiment on HCC 2998; more than 100 µM in the experiment with HCT-15; > 100 µM (inactive) in the experiment with K562. The GI50 in the experiment with KM12 is > 100 µM (inactive); in the experiment on MCF7 it was > 100 µM (inactive); with MDA-MB-435, > 100 µM (inactive); in the experiment on MDA-N, > 100 µM (inactive); in the experiment with MOLT-4 it was 67.5 µM (inactive); in the experiment with NCI-H23, > 100 µM (inactive). The GI50 in the experiment with OVCAR-8 is 55.6 µM (inactive); in the experiment on SF-539 it was > 100 µM (inactive); with SN12C, > 100 µM (inactive); in the experiment on SR it was 59.4 µM (inactive); in the experiment with T47D, 54 µM (inactive); with TK-10, > 100 µM (inactive).
